The test system of data set [1] is human malignant melanoma cell line IGR39. The data set can be described thus: MTT cell viability assay, IGR39. It is filed as cell-based. The protocol:
(§1) The effect of synthesized compounds on cell viability was studied using 3-(4,5-dimethylthiazol-2-yl)-2,5-diphenyltetrazolium bromide (MTT; Sigma-Aldrich Co., St Louis, MO, USA) assay, as described elsewhere. Briefly, IGR39, MDA-MB-231, Panc-1, and HF cells were seeded in 96-well plates (Corning) in triplicate at a volume of 100 μL (IGR39, MDA-MB-231 and Panc-1: 4 × 10^3 cells/well; HF: 5 × 10^3 cells/well). After 24 h, cells were treated with 50 μM of tested compounds. After 72 h, the MTT reagent was added and cells were incubated for 4 h. Then the medium was aspirated, and the formed formazan crystals were dissolved in 100 μL DMSO (Sigma-Aldrich Co., St. Louis, MO, USA). The absorbance was measured at 570 and 630 nm using a multi-detection microplate reader. The compound effect on cell viability was calculated using the formula:(1) Relative cell viability (%)=A−A0/ANC−A0 where
(§2) • A—mean of absorbance of the tested compound, • A0—mean of absorbance of blank (no cells, positive control), and • ANC—mean of absorbance of negative control (only cells, no treatment).
(§3) The compound serial dilutions from 50 µM to 1.56 µM were made in a medium and added to the cells in triplicates. The EC50 value representing the concentration of a compound causing 50% reduction of cancer cell metabolic activity was calculated using the Hill equation.

Data set [2] has as its system Human foreskin fibroblasts (HF) CRL-4001. The data set can be described thus: MTT cell viability assay, fibroblasts. In kind it is cell-based. Particulars: 72 h. The protocol:
as §1, §2, §3

The subject of data set [3] is human pancreatic carcinoma cell line Panc-1. The data set can be described thus: MTT cell viability assay, Panc-1. Particulars: 72 h, serial dilutions 50-1.56 µM, n = 3, read-out: EC50 against Panc-1. In kind it is cell-based. The protocol:
as §1, §2, §3
For orientation: Tetrazolium assays rely on reduction of a dye to a coloured formazan, in cell work by metabolically active cells.

The subject of data set [4] is IGR39, MDA-MB-231 and Panc-1 cell migration. Put plainly: 'Wound healing' cell migration assay, stated for all tested cell lines. In kind it is cell-based, human. Conditions: 10 µM, compared to the control. The protocol: (§4) Briefly, melanoma IGR39, human triple-negative breast cancer MDA-MB-231, and pancreatic carcinoma Panc-1 cells were seeded in 24-well plates at a density of 6 × 10^4 cells/well and incubated for 48 h in previously described cell culture medium at 37°C in a humidified atmosphere containing 5% CO2. Then the scratch was made using a 100 µL pipette tip. Cells were washed once with PBS, and the fresh medium containing 10 µM of compounds 4, 7, 8, 10, 14, 17, and 18 was added. Medium containing 0.1% DMSO was used as a negative control. Cells were incubated at 37 °C in a humidified atmosphere containing 5% CO2.
(§5) The ‘Wounds’ were captured at the intervals of 0 h, 24 h, 48 h and 72 h (only for the Panc-1 cell line) from scratch under the phase contrast microscope at a 4× magnification. The wound area was analysed using the ImageJ program (National Institute of Health, Bethesda, MD, USA).

The subject of data set [5] is MDA-MB-231 cell migration. Put plainly: 'Wound healing' cell migration assay, MDA-MB-231. It is filed as cell-based, human. Conditions: 10 µM, both after 24 h and 48 h of incubation. The method, then:
as §4, §5

In data set [6] the test system is human triple-negative breast cancer MDA-MB-231. The data set can be described thus: MTT cell viability assay, MDA-MB-231. In kind it is cell-based. The protocol:
as §1, §2, §3

Data set [7] deals with melanoma IGR39 spheroids. The data set can be described thus: 3D cell cultures (spheroids), IGR39. It is filed as cell-based, human. Conditions: 10 µM, 8 days of incubation. The method, then:
(§6) Cancer cell spheroids were formed using the magnetic 3D Bioprinting method, as described elsewhere. Briefly, melanoma IGR39, triple-negative breast cancer MDA-MB-231 cells, pancreatic cancer Panc-1 cells, and human fibroblasts at 70% confluency in a 6-well plate were incubated with Nanoshuttle (n3D Biosciences, Inc., Houston, TX, USA) for 8 h at 37°C in a humidified atmosphere containing 5% CO2. Then cells were trypsinized, centrifuged, and seeded into an ultra-low attachment 96-well plate in a volume of 100 µL (1.5 × 10^3 cancer cells and 1.5 × 10^3 human fibroblasts/well). The plate was placed on a magnetic drive and incubated for 2 days at 37°C in a humidified atmosphere containing 5% CO2. Then the fresh medium containing 10 µM of the tested compound was added to the wells. Spheroids were captured every two days using the Olympus IX73 inverted microscope (OLYMPUS CORPORATION, Tokyo, Japan). Quantitative analysis of compound anticancer activity in spheroids was performed using ImageJ, version 1.53o (National Institutes of Health, USA) and Microsoft Office Excel 2016 software (Microsoft Corporation, Redmond, WA, USA).
(§7) On the last day of incubation, 10 µL of WST-1 reagent (Sigma-Aldrich Co, St. Louis, MO, USA) was added to each well with spheroids. After 10 h of incubation, 50 µL of liquid from each well were transferred to the new 96-well plate and the absorbance was measured at 460 and 530 nm using a multi-detection microplate reader. Spheroid cell viability was calculated using a formula provided in Section 3.2.2.

Data set [8] deals with IGR39, MDA-MB-231 and Panc-1 tumour spheroids. Put plainly: 3D cell cultures (spheroids), stated for all three spheroid types. It is filed as cell-based, human. Conditions: 10 µM, 8 days of incubation. The protocol:
as §6, §7

Data set [9] concerns IGR39, MDA-MB-231 and Panc-1 cell lines. The data set can be described thus: MTT cell viability assay, result stated for all tested cancer cell lines together. In kind it is cell-based, human. Conditions: 72 h. The method, then: as §1, §2, §3

Molecule `CCOC(=O)CSC1NN=C(CCNc2ccccc2)N1c1ccccc1` (centres unmarked) [Compound 2, Ethyl 2-((4-phenyl-3-(2-(phenylamino)ethyl)-4,5-dihydro-1H-1,2,4-triazol-5-yl)thio)acetate] yielded a melting point of 121 to 122 °C.

`NNC(=O)CSc1nnc(CCNc2ccccc2)n1-c1ccccc1` [Compound 3, 2-((4-Phenyl-5-(2-(phenylamino)ethyl)-4H-1,2,4-triazol-3-yl)thio)acetohydrazide] showed a melting point of 112 to 113 °C.

In the case of `COc1ccc2c(c1)C(=NNC(=O)CSc1nnc(CCNc3ccccc3)n1-c1ccccc1)C(=O)N2` [Compound 5, N′-(5-methoxy-2-oxoindolin-3-ylidene)-2-((4-phenyl-5-(2-(phenylamino)ethyl)-4H-1,2,4-triazol-3-yl)thio)acetohydrazide], the melting point fell in the range of 238 to 239 °C.

Turning to `O=C(CSc1nnc(CCNc2ccccc2)n1-c1ccccc1)NN=C1C(=O)Nc2ccc([N+](=O)[O-])cc21` [Compound 6, N′-(5-nitro-2-oxoindolin-3-ylidene)-2-((4-phenyl-5-(2-(phenylamino)ethyl)-4H-1,2,4-triazol-3-yl)thio)acetohydrazide], the melting point lay within 274 to 275 °C.

In turn, `O=C(CSc1nnc(CCNc2ccccc2)n1-c1ccccc1)NN=C1C(=O)Nc2ccc(F)cc21` [Compound 7, N′-(5-fluoro-2-oxoindolin-3-ylidene)-2-((4-phenyl-5-(2-(phenylamino)ethyl)-4H-1,2,4-triazol-3-yl)thio)acetohydrazide] gave a melting point of 266 to 267 °C. For the same molecule, in data set [1] (50 µM, 72 h), the “activity against the IGR39 cell line (screening)” value was “most active”.

As for `O=C(CSc1nnc(CCNc2ccccc2)n1-c1ccccc1)NN=C1C(=O)Nc2ccc(OC(F)(F)F)cc21` [Compound 8, N′-(2-oxo-5-(trifluoromethoxy)indolin-3-ylidene)-2-((4-phenyl-5-(2-(phenylamino)ethyl)-4H-1,2,4-triazol-3-yl)thio)acetohydrazide], the melting point was in the range of 258 to 259 °C. In data set [2] (compared with the other selected compounds), the cytotoxicity against fibroblasts result is “lower cytotoxicity against fibroblasts”. Also, in data set [1] (50 µM, 72 h), the “activity against the IGR39 cell line (screening)” value is recorded as “most active”. In [3], the 50% effective concentration (EC50) stood at 38.5 ± 1.6 µM.

With `Cc1ccc(C=NNC(=O)CSc2nnc(CCNc3ccccc3)n2-c2ccccc2)cc1` [Compound 9, N′-(4-methylbenzylidene)-2-((4-phenyl-5-(2-(phenylamino)ethyl)-4H-1,2,4-triazol-3-yl)thio)acetohydrazide], the melting point lay in the range of 189 to 190 °C.

As to `CN(C)c1ccc(C=NNC(=O)CSc2nnc(CCNc3ccccc3)n2-c2ccccc2)cc1` [Compound 10, N′-(4-(dimethylamino)benzylidene)-2-((4-phenyl-5-(2-(phenylamino)ethyl)-4H-1,2,4-triazol-3-yl)thio)acetohydrazide], the melting point lay within 169 to 170 °C. Further, the EC50 in data set [2] (Homo sapiens, Fibroblast, serial dilutions 50-1.56 µM, n = 3, read-out: EC50 against fibroblasts) was 61.4 ± 2.8 µM. The “selectivity against the melanoma IGR39 cell line (screening)” value in data set [1] (50 µM, 72 h) is “moderate selectivity”. In [1] (Homo sapiens, IGR-39, 72 h, serial dilutions 50-1.56 µM, n = 3, read-out: EC50 against IGR39), the concentration for a half-maximal effect (EC50) worked out at 22.3 ± 2.5 µM. For the same molecule, the “effect on cell migration” value in [4] is reported as “inhibited all cancer cell migration”. Also, in data set [3], the EC50 was 26.2 ± 1 µM. Further, the MDA-MB-231 cell migration result in [5] was “migrated slower”. In data set [6] (Homo sapiens, MDA-MB-231, 72 h, serial dilutions 50-1.56 µM, n = 3, read-out: EC50 against MDA-MB-231), the concentration for a half-maximal effect (EC50) stood at 9.7 ± 1.6 µM.

On to `O=C(CSc1nnc(CCNc2ccccc2)n1-c1ccccc1)NN=Cc1ccncc1` [Compound 11, 2-((4-Phenyl-5-(2-(phenylamino)ethyl)-4H-1,2,4-triazol-3-yl)thio)-N′-(pyridin-4-ylmethylene)acetohydrazide], for which the melting point fell in the range of 209 to 210 °C.

Regarding `O=C(CSc1nnc(CCNc2ccccc2)n1-c1ccccc1)NN=Cc1cccnc1` [Compound 12, 2-((4-Phenyl-5-(2-(phenylamino)ethyl)-4H-1,2,4-triazol-3-yl)thio)-N′-(pyridin-3-ylmethylene)acetohydrazide], the melting point lay within 92 to 93 °C.

On to `O=C(CSc1nnc(CCNc2ccccc2)n1-c1ccccc1)NN=Cc1ccc(C(=O)O)cc1` [Compound 13, 4-((2-(2-((4-Phenyl-5-(2-(phenylamino)ethyl)-4H-1,2,4-triazol-3-yl)thio)acetyl)hydrazono)methyl)benzoic acid], for which the melting point was 233 to 234 °C.

Consider `O=C(CSc1nnc(CCNc2ccccc2)n1-c1ccccc1)NN=Cc1c[nH]nc1-c1ccccc1` [Compound 15, N′-((3-phenyl-1H-pyrazol-4-yl)methylene)-2-((4-phenyl-5-(2-(phenylamino)ethyl)-4H-1,2,4-triazol-3-yl)thio)acetohydrazide], for which the melting point lay in the range of 119 to 120 °C.

`Cn1ccc(C=NNC(=O)CSc2nnc(CCNc3ccccc3)n2-c2ccccc2)n1` [Compound 16, N′-((1-methyl-1H-pyrazol-3-yl)methylene)-2-((4-phenyl-5-(2-(phenylamino)ethyl)-4H-1,2,4-triazol-3-yl)thio)acetohydrazide] showed a melting point of 62 to 63 °C.

Regarding `O=C(CSc1nnc(CCNc2ccccc2)n1-c1ccccc1)NN=Cc1cc([N+](=O)[O-])ccc1O` [Compound 18, N′-(2-hydroxy-5-nitrobenzylidene)-2-((4-phenyl-5-(2-(phenylamino)ethyl)-4H-1,2,4-triazol-3-yl)thio)acetohydrazide], the melting point was in the range of 219 to 220 °C. Further, the “melanoma IGR39 spheroid growth” value in [7] is “mostly inhibited”. Besides, in [8], the “activity in 3D cell cultures (spheroids)” value was “most active”. Moreover, the “activity against all tested cancer cell lines (screening)” value in [9] (50 µM) is given as “most active”. For the same molecule, the concentration giving a half-maximal response (EC50) in data set [9] (Homo sapiens, range over cancer cell lines, read-out: EC50 values against the tested cancer cell lines (range)) lay within 2 to 17 µM.

`CSc1ccc(C=NNC(=O)CSc2nnc(CCNc3ccccc3)n2-c2ccccc2)cc1` [Compound 19, N′-(4-(methylthio)benzylidene)-2-((4-phenyl-5-(2-(phenylamino)ethyl)-4H-1,2,4-triazol-3-yl)thio)acetohydrazide] returned a melting point of 196 to 197 °C. Moreover, the “activity against the IGR39 cell line (screening)” value in [1] (50 µM, 72 h) was “least active”. In addition, in [6] (50 µM, 72 h), the “activity towards the triple-negative breast cancer cell line (screening)” value was “relatively higher activity”.

By melting point is commonly meant the temperature, or range, at which the solid turns liquid. By EC50 is commonly meant the concentration needed to bring the measured effect to its halfway point.

Values taken from paper PMC9416745, “The Effect of 1,2,4-Triazole-3-thiol Derivatives Bearing Hydrazone Moiety on Cancer Cell Migration and Growth of Melanoma, Breast, and Pancreatic Cancer Spheroids” (Pharmaceuticals, 2022).
